We go through three molecules from ChEMBL document CHEMBL1129662, “Investigation of (Oxodioxolenyl)methyl carbamates as nonchiral bioreversible prodrug moieties for chiral amines” (J Med Chem, 1996).

Bounds are passed on as bounds.

Data set [1] in a line: First order rate data for the hydrolysis of compound in rat plasma hydrolysis medium; Half-life in minutes. The format is ADME.
A short description of data set [2]: First order rate data for the hydrolysis of compound in dog plasma hydrolysis medium; Half-life in minutes. In kind it is ADME, Canis lupus familiaris.
Data set [3] is described as follows: First order rate data for the hydrolysis of compound in 0.1 M hydrochloric acid pH 1 hydrolysis medium; Half-life in minutes. The format is ADME.
Data set [4] is described as follows: First order rate data for the hydrolysis of compound in 0.05 M phosphate buffer pH 7.4 hydrolysis medium; Half-life in minutes. The format is ADME.
Data set [5] can be described thus: First order rate data for the hydrolysis of compound in 0.1 M hydrochloric acid pH 1 hydrolysis medium (adinotes no detectable hydrolysis after 48 h); Half-life in minutes. In kind it is ADME.

In the case of `COc1ccc(CCNC(=O)OCc2oc(=O)oc2-c2ccccc2)cc1OC`, the half-life in data set [1] was 0.0333 h; in data set [2], 0.183 h; in data set [3] it was 59.2 h; in data set [4], 2.23 h.

For `COc1ccc(CCNC(=O)OCc2oc(=O)oc2C)cc1OC`, the half-life in data set [1] is 0.183 h; in data set [5] it was > 50 h; in data set [4], 4.3 h.

As to `COc1ccc(-c2oc(=O)oc2COC(=O)NCCc2ccc(OC)c(OC)c2)cc1`, the half-life in data set [1] was 0.0333 h; in data set [2], 0.233 h; in data set [3] it was 53 h; in data set [4], 3.45 h.
